Experimental data from US20230226136A1, “A SYNERGISTIC FORMULATION FOR MANAGEMENT OF RESPIRATORY PATHOGENS INCLUDING CORONAVIRUSES” (priority 2020, published 2023).

Experiments:
[1] = Effective concentrations of components of the formulation (tested in 200 uL of the formulation); conditions: for Actual concentrations that were effective in 200 uL, 1:20 dilution: concentration of the component within the formulation at 1:20 dilution
Description: Table 1 depicts the concentration of the biological, non-toxic peptide molecules included in the formulation of the present invention. The synergistic formulation of the present invention is prepared in various combinations of the constituents including protease inhibitor, 9 Arg, ion chelator, FDHIVY, Poly-Lys (L8), Anti-HAT, and vitamin B12. Each combination may include some of the above mentioned constituents depending on the use of the formulation. These concentrations of the components of the synergistic formulations of the present invention have been tested to be effective in 200 μL of the formulation.

SARS-CoV-2 = assay: IC-50 plaque assay against SARS-CoV-2; assay type: cell-based; conditions: highest concentration tested 25 μM, FIG. 3
Description: The IC-50 value of Remdesivir was calculated by considering the top and baseline value 100 and 0 respectively.
The IC-50 of the test material was calculated by considering the top and baseline value 100 and 0 respectively.

Compound | Actual concentrations that were effective in 200 uL, 1:20 dilution [1] | Actual concentrations that were effective in 200 uL, 1:30 dilution ([1]; concentration of the component within the formulation at 1:30 dilution) [mM] | reduction in viral load (SARS-CoV-2)
9-L-Arginine-peptide [9 Arg] | 2 mM | 1.3 | –
Phenylalanine-Aspartic acid-Histidine-Isoleucine-Valine-Tyrosine [FDHIVY] | 0.25 µg/mL | – | –
CCC(CC)COC(=O)[C@H](C)N[P@](=O)(OC[C@H]1O[C@@](C#N)(c2ccc3c(N)ncnn23)[C@H](O)[C@@H]1O)Oc1ccccc1 [Remdesivir] | – | – | up to 86.84%
